Measured values from patent US12097192B2 (Corcept Therapeutics Incorporated, priority 2019, dated 2024).
Entries after “also recorded” stand apart in the source; their conditions may differ.

Experiments:
[1] = test system: Cushing's syndrome patients; experiment: Cushing's syndrome patient study: coagulation factors, platelets, aPTT; assay type: in vivo, human
Excerpt: (§1) All patients gave informed consent before participating in any study-related procedures. […] The study protocol called for patient visits to the study site at screening, on Day 1 (baseline), Weeks 2, 4, 6, 8, 10, and 12, and after a 4-week follow-up period for Group 1. For Group 2, the protocol called for patient visits to the study site at screening, on Day 1 (baseline), Weeks 2, 4, 6, 8, 10, 12, 14, and 16, and after a 4-week follow-up period. Patient dosing will be done at home, except on days of study visits. […] The safety protocol also included assessments by physical examination findings, vital signs, ECG results, pregnancy tests, clinical laboratory test results (hematology and chemistry panels), adverse events (AEs), and concomitant medications. […] It ignores noncompliance, protocol deviations, withdrawal, and anything that happens after randomization. In contrast, per-protocol (PP) analysis refers to inclusion in the analysis of only those patients who strictly adhered to the protocol. The PP analysis provides an estimate of the true efficacy of an intervention, i.e., among those who completed the treatment as planned.

[2] = test system: Cushing's syndrome patients; experiment: Cushing's syndrome patient study: absolute eosinophils and lymphocytes; assay type: in vivo, human; conditions: All Subjects, mITT
Excerpt: as §1

[3] = test system: Cushing's syndrome patients; experiment: Cushing's syndrome patient study: depression (BDI-II), Cushing QOL, cognitive tests; assay type: in vivo, human; conditions: All Subjects
Excerpt: All patients gave informed consent before participating in any study-related procedures. […] The study protocol called for patient visits to the study site at screening, on Day 1 (baseline), Weeks 2, 4, 6, 8, 10, and 12, and after a 4-week follow-up period for Group 1. For Group 2, the protocol called for patient visits to the study site at screening, on Day 1 (baseline), Weeks 2, 4, 6, 8, 10, 12, 14, and 16, and after a 4-week follow-up period. Patient dosing will be done at home, except on days of study visits. […] It ignores noncompliance, protocol deviations, withdrawal, and anything that happens after randomization. In contrast, per-protocol (PP) analysis refers to inclusion in the analysis of only those patients who strictly adhered to the protocol. The PP analysis provides an estimate of the true efficacy of an intervention, i.e., among those who completed the treatment as planned.

[4] = test system: Cushing's syndrome patients; experiment: Cushing's syndrome patient study: weight loss; assay type: in vivo, human
Excerpt: (§2) All patients gave informed consent before participating in any study-related procedures.

[5] = test system: Cushing's syndrome patients; experiment: Cushing's syndrome patient study: safety and adverse events; assay type: in vivo, human
Excerpt: as §2
The safety protocol also included assessments by physical examination findings, vital signs, ECG results, pregnancy tests, clinical laboratory test results (hematology and chemistry panels), adverse events (AEs), and concomitant medications.

[6] = test system: other nuclear steroid hormone receptors; experiment: Binding to other nuclear steroid hormone receptors
[7] = Abnormal at Baseline, mITT, Group 1 (100-200 mg/day, 12 weeks)
[8] = Abnormal at Baseline, mITT, Group 2 (250-400 mg/day, 16 weeks)
[9] = Abnormal at Baseline, mITT, Overall
[10] = Abnormal at Baseline, mPP, Group 1 (100-200 mg/day, 12 weeks)
[11] = Abnormal at Baseline, mPP, Group 2 (250-400 mg/day, 16 weeks)
[12] = Abnormal at Baseline, mPP, Overall
[13] = All Subjects, mITT, Group 1 (100-200 mg/day, 12 weeks)
[14] = All Subjects, mITT, Group 2 (250-400 mg/day, 16 weeks)
[15] = All Subjects, mPP, Group 1 (100-200 mg/day, 12 weeks)
[16] = All Subjects, mPP, Group 2 (250-400 mg/day, 16 weeks)
[17] = Group 1 (100-200 mg/day, 12 weeks)
[18] = Group 2 (250-400 mg/day, 16 weeks)
[19] = mITT, Group 1 (100-200 mg/day, 12 weeks)
[20] = mITT, Group 2 (250-400 mg/day, 16 weeks)
[21] = mPP, Group 1 (100-200 mg/day, 12 weeks)
[22] = mPP, Group 2 (250-400 mg/day, 16 weeks)

Cn1cc(S(=O)(=O)N2CCC3=Cc4c(cnn4-c4ccc(F)cc4)C[C@]3(C(=O)c3cc(C(F)(F)F)ccn3)C2)cn1 [relacorilant, (R)-(1-(4-fluorophenyl)-6-((1-methyl-1H-pyrazol-4-yl)sulfonyl)-4,4a,5,6,7,8-hexahydro-1H-pyrazolo[3,4-g]isoquinolin-4a-yl) (4-(trifluoromethyl)pyridin-2-yl)methanone]
Factor IX mean change from Baseline to Last Observed [1, 7]: −40.8% | Factor X mean change from Baseline to Last Observed [1, 7]: −15.8% | Thrombin-Antithrombin mean change from Baseline to Last Observed [1, 7]: 1.61 µg/L | Factor IX mean change from Baseline to Last Observed [1, 8]: −4.2% | Factor X mean change from Baseline to Last Observed [1, 8]: −22% | Thrombin-Antithrombin mean change from Baseline to Last Observed [1, 8]: -9.83 µg/L | von Willebrand Factor mean change from Baseline to Last Observed [1, 8]: −18.5% | Factor IX mean change from Baseline to Last Observed [1, 9]: −22.5% | Factor X mean change from Baseline to Last Observed [1, 9]: −18.13% | Thrombin-Antithrombin mean change from Baseline to Last Observed [1, 9]: -3.88 µg/L | von Willebrand Factor mean change from Baseline to Last Observed [1, 9]: −18.5% | Factor IX mean change from Baseline to Last Observed [1, 10]: −40.8% | Factor X mean change from Baseline to Last Observed [1, 10]: −15.8% | Thrombin-Antithrombin mean change from Baseline to Last Observed [1, 10]: 1.61 µg/L | Factor IX mean change from Baseline to Last Observed [1, 11]: −4.2% | Factor X mean change from Baseline to Last Observed [1, 11]: −22% | Thrombin-Antithrombin mean change from Baseline to Last Observed [1, 11]: -9.83 µg/L | von Willebrand Factor mean change from Baseline to Last Observed [1, 11]: −18.5% | Factor IX mean change from Baseline to Last Observed [1, 12]: −22.5% | Factor X mean change from Baseline to Last Observed [1, 12]: −18.13% | Thrombin-Antithrombin mean change from Baseline to Last Observed [1, 12]: -3.88 µg/L | von Willebrand Factor mean change from Baseline to Last Observed [1, 12]: −18.5% | Factor IX mean change from Baseline to Last Observed [1, 13]: −11.59% | Factor VIII mean change from Baseline to Last Observed [1, 13]: −11.94% | Factor X mean change from Baseline to Last Observed [1, 13]: −0.06% | Platelet Count mean change from Baseline to Last Observed [1, 13]: −62.82 10^9/L | Thrombin-Antithrombin mean change from Baseline to Last Observed [1, 13]: 1.48 µg/L | aPTT mean change from Baseline to Last Observed [1, 13]: 2.24 s | von Willebrand Factor mean change from Baseline to Last Observed [1, 13]: 2.88% | Factor IX mean change from Baseline to Last Observed [1, 14]: 6.44% | Factor VIII mean change from Baseline to Last Observed [1, 14]: −26.38% | Factor X mean change from Baseline to Last Observed [1, 14]: −8.88% | Platelet Count mean change from Baseline to Last Observed [1, 14]: −74.82 10^9/L | Thrombin-Antithrombin mean change from Baseline to Last Observed [1, 14]: -7.13 µg/L | aPTT mean change from Baseline to Last Observed [1, 14]: 0.5 s | von Willebrand Factor mean change from Baseline to Last Observed [1, 14]: 10.88% | Factor IX mean change from Baseline to Last Observed ([1]; All Subjects, mITT, Overall): −2.85% | Factor VIII mean change from Baseline to Last Observed ([1]; All Subjects, mITT, Overall): −18.94% | Factor X mean change from Baseline to Last Observed ([1]; All Subjects, mITT, Overall): −4.33% | Platelet Count mean change from Baseline to Last Observed ([1]; All Subjects, mITT, Overall): −68.82 10^9/L | Thrombin-Antithrombin mean change from Baseline to Last Observed ([1]; All Subjects, mITT, Overall): -2.69 µg/L | aPTT mean change from Baseline to Last Observed ([1]; All Subjects, mITT, Overall): 1.45 s | von Willebrand Factor mean change from Baseline to Last Observed ([1]; All Subjects, mITT, Overall): 6.76% | Factor IX mean change from Baseline to Last Observed [1, 15]: −11.59% | Factor VIII mean change from Baseline to Last Observed [1, 15]: −11.94% | Factor X mean change from Baseline to Last Observed [1, 15]: −0.06% | Thrombin-Antithrombin mean change from Baseline to Last Observed [1, 15]: 1.48 µg/L | aPTT mean change from Baseline to Last Observed [1, 15]: 2.24 s | von Willebrand Factor mean change from Baseline to Last Observed [1, 15]: 2.88% | Factor IX mean change from Baseline to Last Observed [1, 16]: 6.44% | Factor VIII mean change from Baseline to Last Observed [1, 16]: −26.38% | Factor X mean change from Baseline to Last Observed [1, 16]: −8.88% | Thrombin-Antithrombin mean change from Baseline to Last Observed [1, 16]: -7.13 µg/L | aPTT mean change from Baseline to Last Observed [1, 16]: 0.5 s | von Willebrand Factor mean change from Baseline to Last Observed [1, 16]: 10.88% | Factor IX mean change from Baseline to Last Observed ([1]; All Subjects, mPP, Overall): −2.85% | Factor VIII mean change from Baseline to Last Observed ([1]; All Subjects, mPP, Overall): −18.94% | Factor X mean change from Baseline to Last Observed ([1]; All Subjects, mPP, Overall): −4.33% | Thrombin-Antithrombin mean change from Baseline to Last Observed ([1]; All Subjects, mPP, Overall): -2.69 µg/L | aPTT mean change from Baseline to Last Observed ([1]; All Subjects, mPP, Overall): 1.45 s | von Willebrand Factor mean change from Baseline to Last Observed ([1]; All Subjects, mPP, Overall): 6.76% | coagulation factors (FIG. 3) ([1]; Cushing's syndrome patients): improvement in coagulation factors | onset of improvement/normalization of abnormally elevated coagulation factors ([1]; treatment with relacorilant): as early as after one month | Absolute Eosinophils mean change from Baseline to Last Observed [2, 17]: 0.05 10^{super 9 | Absolute Lymphocytes mean change from Baseline to Last Observed [2, 17]: −0.15 10^{super 9 | Absolute Eosinophils mean change from Baseline to Last Observed [2, 18]: 0.05 10^{super 9 | Absolute Lymphocytes mean change from Baseline to Last Observed [2, 18]: 0.26 10^{super 9 | Absolute Eosinophils mean change from Baseline to Last Observed ([2]; Overall): 0.05 10^{super 9 | Absolute Lymphocytes mean change from Baseline to Last Observed ([2]; Overall): 0.05 10^{super 9 | BDI-II Total Score mean change from Baseline to Last Observed [3, 19]: −3.06 | Cushing QOL Score mean change from Baseline to Last Observed [3, 19]: 6.25 | Part A - Total Time to Complete T mean change from Baseline to Last Observed [3, 19]: −3.65 | Part B - Total Time to Complete T mean change from Baseline to Last Observed [3, 19]: −15.94 | BDI-II Total Score mean change from Baseline to Last Observed [3, 20]: −3.94 | Cushing QOL Score mean change from Baseline to Last Observed [3, 20]: 8.07 | Part A - Total Time to Complete T mean change from Baseline to Last Observed [3, 20]: −4.67 | Part B - Total Time to Complete T mean change from Baseline to Last Observed [3, 20]: −34.6 | BDI-II Total Score mean change from Baseline to Last Observed ([3]; mITT, Overall): −3.48 | Cushing QOL Score mean change from Baseline to Last Observed ([3]; mITT, Overall): 7.13 | Part A - Total Time to Complete T mean change from Baseline to Last Observed ([3]; mITT, Overall): −4.13 | Part B - Total Time to Complete T mean change from Baseline to Last Observed ([3]; mITT, Overall): −24.69 | BDI-II Total Score mean change from Baseline to Last Observed [3, 21]: −4.47 | Cushing QOL Score mean change from Baseline to Last Observed [3, 21]: 6.25 | Part A - Total Time to Complete T mean change from Baseline to Last Observed [3, 21]: −3.65 | Part B - Total Time to Complete T mean change from Baseline to Last Observed [3, 21]: −15.94 | BDI-II Total Score mean change from Baseline to Last Observed [3, 22]: −3.87 | Cushing QOL Score mean change from Baseline to Last Observed [3, 22]: 7.64 | Part A - Total Time to Complete T mean change from Baseline to Last Observed [3, 22]: −4.67 | Part B - Total Time to Complete T mean change from Baseline to Last Observed [3, 22]: −34.6 | BDI-II Total Score mean change from Baseline to Last Observed ([3]; mPP, Overall): −4.19 | Cushing QOL Score mean change from Baseline to Last Observed ([3]; mPP, Overall): 6.9 | Part A - Total Time to Complete T mean change from Baseline to Last Observed ([3]; mPP, Overall): −4.13 | Part B - Total Time to Complete T mean change from Baseline to Last Observed ([3]; mPP, Overall): −24.69 | average weight loss ([4]; doses up to 200 mg daily, within 3 months): 2.2 kg | average weight loss ([4]; doses up to 400 mg daily, within 3 months): 5.1 kg | weight loss ([4]; many of the patients): Some weight loss | weight changes ([4]; within 3 months, in half of the patients): significant weight changes | adverse effects of progesterone receptor antagonism ([5]; Cushing's syndrome patients): no adverse effects of progesterone receptor antagonism | drug induced hypokalemia ([5]; Cushing's syndrome patients): none of the patients suffered hypokalemia; also recorded: without any episodes of drug induced hypokalemia; also recorded: no patients developed drug induced hypokalemia; also recorded: no reported instances | drug induced vaginal bleeding ([5]; Cushing's syndrome patients): No drug-induced hypokalemia or vaginal bleeding; also recorded: no cases of drug induced vaginal bleeding; also recorded: no reported instances | drug-related serious adverse events ([5]; Cushing's syndrome patients): no drug-related serious adverse events | most common treatment-emergent adverse events (TEAEs) ([5]; Cushing's syndrome patients): back pain, edema, headache, and nausea | tolerability ([5]; Cushing's syndrome patients, up to 400 mg/day): generally well tolerated | serious TEAEs ([5]; all from the HD group): Five serious TEAEs were reported in 4 patients | endometrial hypertrophy developed on previous mifepristone ([5]; one patient previously treated with mifepristone, during treatment with relacorilant): completely resolved | safety profile compared with mifepristone ([5]; patients with endogenous Cushing syndrome): significantly better | binding to other nuclear steroid hormone receptors [6]: does not bind
